{"source": "patent US20240165144A1", "about": "“COMPOSITIONS AND METHODS FOR MODULATING INNATE IMMUNE SIGNALING PATHWAYS” (Dana-Farber Cancer Institute, Inc., priority 2019, published 2024)", "test_system": "cGAS-STING signaling", "assay": "interferon reporter assay with transfected polar cell extracts", "type": "cell-based", "settings": "iterative HPLC purification on 3 columns; single peak at retention time 24.5 minutes; FIG. 3", "text": "FIG. 1A-FIG. 1B—FIG. 1A cGAS is an innate immune signaling enzyme that generates cyclic GMP-AMP in response to cytosolic DNA, image adapted from (7); FIG. 1B.\nApplicants then transfected these extracts into the assay that was used to measure the effects of MB21D2 expression on interferon signaling (FIG. 1B workflow at top)."}
{"compound": "Nc1ncnc2c1ncn2[C@@H]1O[C@H](CO)[C@@H](O)[C@H]1OP(=O)([O-])OP(=O)([O-])OP(=O)([O-])[O-].[Na+].[Na+].[Na+].[Na+]", "note": "[2′-ATP, Adenosine 2′-Triphosphate, Sodium Salt]", "values": [{"measurement": "anti-STING activity of HPLC-purified fraction", "value": "anti-STING activity was localized to a single peak"}]}
